Experiments:
MM cells = test: IC50 concentrations of HDAC inhibitors in MM cells; format: cell-based; settings: Homo sapiens
[1] = test system: U266, RPMI, and MM1S cells; test: Apoptosis (annexin) and necrosis (propidium iodide) by HDAC inhibitors, FIG. 15; format: cell-based, human
Description: Apoptosis was measured by annexin staining while cell necrosis was measured by propidium iodide staining.
CD44 surface expression was analyzed by staining cells with CD44-FITC antibody (BD Biosciences) for 30 min. in the dark, at room temperature. Apoptosis was measured by Annexin V-FITC and Propidium Iodide (PI) (Clontech) staining for 15 min. in the dark, at room temperature and data immediately acquired on a Beckman Coulter FC500 (Beckman Coulter) machine. Analysis was conducted using the FlowJo Software vX.0.7 (Tree Star Inc.). For the multiparametric analysis, the bone marrow samples were stained with CD38-PE (347687; BD Bioscience), CD138-APC (347193; BD Bioscience), CD45-ECD (A07784; Beckman Coulter), CD44-FITC (BD Bioscience) and AnnexinV-FITC (Clontech) for 30 minutes, washed with PBS and immediately analyzed with Gallios cytometer (Beckman Coulter).

MM.1S GFP/Luc+ cells = test: NOD-SCID mice engrafted i.v. with MM.1S GFP/Luc+ cells, oral AR-42 + pomalidomide; format: in vivo; settings: 25 mg/kg each
Source text: To investigate whether the oral combination treatment of AR-42 and pomalidomide improves the survival of mice engrafted with MM cells, 40 NOD-SCID mice were engrafted with 10×10^6 MM.1S GFP/Luc+ cells by intravenous injection (IV). Ten days later, mice with the same tumor burden (as calculated by luminescence) (FIG. 14C) were randomly divided into 4 treatment groups (10 mice per group): AR-42 alone, pomalidomide alone, AR-42+pomalidomide, and vehicle control (Ctrl, 8% DMSO in PBS). Mice were treated by oral administration (gavage) daily with pomalidomide (25 mg/kg) or Ctrl, and three times a week (Mon-Tues-Fri) with AR-42 (25 mg/kg) or Ctrl, until elimination criteria, including paralysis, extreme weight loss and dehydration, were reached.

In the case of `Cc1[nH]c2ccccc2c1CCNCc1ccc(/C=C/C(=O)NO)cc1` [LBH, reference compound], the IC50 (MM cells) is reported as 0.01 µM and the dose response curve ([1]; data not shown) is reported as “No dose response curve could be obtained”.
`O=C(CCCCCCC(=O)Nc1ccccc1)NO` [SAHA, suberoylanilide hydroxamic acid, reference compound] was tested, and the “apoptosis (annexin staining)” value ([1]; 24 and 48 hours, 0.25, 0.5, and 1 μM) was “limited impact on apoptosis”.
In the case of `Nc1cccc2c1C(=O)N(C1CCC(=O)NC1=O)C2=O` (stereo not shown) [pomalidomide, reference compound], the median survival (MM.1S GFP/Luc+ cells) is reported as 42 days.
